Laboratory results taken from article PMC7076352 (Pharmaceutics, 2020).
Like-named read-outs stand apart in the source and are kept apart here.

Experiments:
CYP2B6 [1] = experiment: in vitro; conditions: microsomes
In short: (§1)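 Probe substrates were pooled in a single microsomal incubation, with each substrate concentration optimized to keep metabolite formation linear. Metabolites were quantified against isotope-labelled internal standards: hydroxybupropion-[D6] (OHBUP-[D6]) and 5 nM 4′-hydroxydiclofenac-[^13C6] (OHDIC-[^13C6]).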

CYP2B6 [2] = conditions: positive inhibitor of CYP2B6, literature ref 12,13; read-out: Reported IC50; cited from earlier work
CYP2C19 [3] = conditions: read-out: Reported Km; probe substrate OME, CYP2C19, literature range ref 9; cited from earlier work
CYP2C19 [4] = experiment: In vitro cocktail CYP450 activity assay in rat liver microsomes, CYP2C19 (omeprazole probe); conditions: rat
In short: as §1

CYP2C9 [5] = experiment: in vitro; conditions: Sprague-Dawley, rat, microsomes, pH 7.4
In short: as §1

CYP2C9 [6] = conditions: read-out: Reported IC50; positive inhibitor of CYP2C9, literature ref 17,18; cited from earlier work
CYP2D6 [7] = experiment: in vitro; conditions: rat, pH 7.4
In short: as §1

CYP2D6 [8] = conditions: read-out: Reported Km; probe substrate DEX, CYP2D6, literature range ref 9; cited from earlier work
CYP3A4 = experiment: in vitro; conditions: Sprague-Dawley, rat, microsomes, pH 7.4
In short: as §1

[9] = tested on: CYP450s (isozyme not named); experiment: In vitro cocktail CYP450 activity assay, isozyme not given; type: in vitro ADME, SD rat; conditions: Sprague-Dawley, rat, pH 7.4
Procedure: (OHBUP-[D6]) and 5 nM 4′-hydroxydiclofenac-[^13C6] (OHDIC-[^13C6]) as internal standards (ISs).

CYP2E1 = CYP2E1 (Rattus norvegicus, UniProt P05182); conditions: IC50 CYP2E1, single components; RLM 0.2 mg/mL, 15 min, triplicate, mean ± SD
not read = substrate: CCOc1ccc(NC(C)=O)cc1; experiment: not read; conditions: other: probe substrate, PHE to dEtPHE, CYP1A2, n = 3; pH 7.4; 37.0 °C

CYP2E1, sequence (P05182 whole entry): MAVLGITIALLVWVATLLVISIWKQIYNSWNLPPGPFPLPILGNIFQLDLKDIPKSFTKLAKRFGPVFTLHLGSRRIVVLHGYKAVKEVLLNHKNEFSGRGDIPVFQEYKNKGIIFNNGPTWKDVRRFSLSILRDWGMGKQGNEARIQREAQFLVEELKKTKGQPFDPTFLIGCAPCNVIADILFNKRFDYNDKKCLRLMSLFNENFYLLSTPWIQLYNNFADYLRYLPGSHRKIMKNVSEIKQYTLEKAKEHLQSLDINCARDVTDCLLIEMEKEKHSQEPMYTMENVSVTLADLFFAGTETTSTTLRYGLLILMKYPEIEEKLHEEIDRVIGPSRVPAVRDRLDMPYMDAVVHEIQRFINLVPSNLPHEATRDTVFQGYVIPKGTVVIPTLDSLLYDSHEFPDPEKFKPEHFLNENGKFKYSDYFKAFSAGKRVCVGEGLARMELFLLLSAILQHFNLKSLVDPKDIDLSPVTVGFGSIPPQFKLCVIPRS

S=P(N1CC1)(N1CC1)N1CC1 [TRI, triethylenethiophosphoramide, reference compound]
IC50 (CYP2B6 [1]): 0.75 ± 0.0262 µM
IC50 (CYP2B6 [2]): 1.75 to 26 µM

COc1ccc2[nH]c([S+]([O-])Cc3ncc(C)c(OC)c3C)nc2c1 (stereo not shown) [OME, omeprazole, reference compound]
Km (CYP2C19 [3]): 17 to 26 µM
Km at 15 min (CYP2C19 [4]; SD, pooled rat liver microsomes, pH 7.4, probe omeprazole): 7.8 ± 1.65 µM

COc1ccc2c(c1)[C@]13CCCC[C@@H]1[C@H](C2)N(C)CC3 [DEX, dextromethorphan, reference compound]
Km (CYP2D6 [7]; SD): 0.62 ± 0.08 µM
Km (CYP2D6 [8]): 0.44 to 8.5 µM

O=c1c(O)c(-c2ccc(O)c(O)c2)oc2cc(O)cc(O)c12 [A16, quercetin]
IC50 (CYP2C9 [5]): 13.5 ± 2.41 µM
IC50 (CYP2B6 [1]; Sprague-Dawley, rat, pH 7.4): 68.5 ± 9.88 µM
IC50 (CYP2D6 [7]; Sprague-Dawley, microsomes): 31.1 ± 3.91 µM
IC50 [9]: ≤ 15 µM
IC50 (CYP2E1): 20.3 ± 4.13 µM
IC50 (CYP2C19 [4]; Sprague-Dawley, microsomes, pH 7.4): 46.4 ± 7.05 µM

B1: CYP1A2 (Rattus norvegicus) (protein)
chain: MAFSQYISLAPELLLATAIFCLVFWVLRGTRTQVPKGLKSPPGPWGLPFIGHMLTLGKNPHLSLTKLSQQYGDVLQIRIGSTPVVVLSGLNTIKQALVKQGDDFKGRPDLYSFTLITNGKSMTFNPDSGPVWAARRRLAQDALKSFSIASDPTSVSSCYLEEHVSKEANHLISKFQKLMAEVGHFEPVNQVVESVANVIGAMCFGKNFPRKSEEMLNLVKSSKDFVENVTSGNAVDFFPVLRYLPNPALKRFKNFNDNFVLFLQKTVQEHYQDFNKNSIQDITGALFKHSENYKDNGGLIPQEKIVNIVNDIFGAGFETVTTAIFWSILLLVTEPKVQRKIHEELDTVIGRDRQPRLSDRPQLPYLEAFILEIYRYTSFVPFTIPHSTTRDTSLNGFHIPKECCIFINQWQVNHDEKQWKDPFVFRPERFLTNDNTAIDKTLSEKVMLFGLGKRRCIGEIPAKWEVFLFLAILLHQLEFTVPPGVKVDLTPSYGLTMKPRTCEHVQAWPRFSK
Km (not read): 65.26 ± 14.35 µM
